Data reported in article PMC10333884, “Large‐scale phosphomimetic screening identifies phospho‐modulated motif‐based protein interactions” (Molecular Systems Biology, 2023).
Residues, ends and D or L forms follow the SMILES beside them.

Assays:
[1] = target: T1, GABARAPL2 (Homo sapiens, UniProt P60520); assay: FP displacement assay, GABARAPL2; format: binding; conditions: read-out: KD values ± SEM
T1 construct: GABARAPL2_ATG8__P60520_2_115; GST (cleaved yes); made in house; host or cells: Escherichia coli BL21-Gold(DE3)
Description: (§1) FP experiments were performed as described previously (Kliche et al, [2021]). Shortly, in order to monitor the binding event, FITC‐labelled peptides were used (excitation 495 nm, emission: 535 nm) and the FP signal was recorded in mP on a SpectraMax iD5 Multi‐Mode Microplate Reader (Molecular Devices) by measuring the emitted light in two angels. The measurements were performed at room temperature and prepared in nonbinding black half area 96‐well microplates (Corning®; 50 μl/well). For measuring direct binding, that is saturation curves, a 1:1 dilution series of protein domain (25 μl/well) was generated in 50 mM sodium phosphate buffer pH 7.4 and the measurement performed with 5 nM FITC‐labelled peptide (25 μl/well). The buffer‐corrected values were subsequently plotted with PRISM and fitted to the quadratic equation (Gianni et al, [2005]).
(§2) The 1:1 dilution series in this experiment was performed with the unlabelled peptide in 50 mM sodium phosphate buffer pH 7.4, so that each well‐contained unlabelled peptide (25 μl) at a certain concentration and pre‐formed complex (25 μl). The KD values of this indirectly monitored binding event were calculated as described previously (Nikolovska‐Coleska et al, [2004]). All measurements were at least in technical triplicates as well as biological duplicates when indicated. An amplitude shift between repeat measurements in the displacement experiments was occasionally observed due to variations in the protein preparations. If that was the case, the “active” protein concentration was back‐calculated according to the quadratic equation from the saturation curves performed in parallel. By comparing the active protein concentrations in the complex between different protein preparations, the amplitude was normalised.

[2] = target: T1, GABARAPL2; assay: Phosphomimetic ProP-PD selection, GABARAPL2; conditions: phosphomimetic enrichment score of the wild-type/phosphomimetic (E) pair at the phosphosite, PM_HD2 phage selection; positive = phosphomimetic enhances binding; P-value in brackets not taken
Description: (§3) Selections using the PM_HD2 phage library were performed as described previously with minor modification to the original protocol. The corresponding tag protein (either GST or MBP) was first used during negative selections. Selections were run for 4 days. • Bait and tag proteins (10–15 μg in 100 μl PBS) were immobilised in 96‐well MaxiSorb plate (NUNC) o.n. at 4°C. • Escherichia coli OmniMax bacteria were grown in 2YT medium supplemented with tetracycline (100 μg/ml) at 37°C and 200 rpm. • Plates with immobilised bait/tag proteins were blocked with 0.5% BSA in PBS for 1 h at 4°C. • Phage library (10 μl/well) was prepared by diluting 10× with PBS and adding one‐fourth of the volume of PEG/NaCl. For phage precipitation, prepared library was incubated for 10 min on ice followed by centrifugation for 10 min at 10,000 × g at 4°C. […]
(§4) Based on the results from phage pool ELISAs, samples from selection Day 3 and 4 were selected for NGS, as described previously (Benz et al, [2022]). • Peptide coding regions were amplified and dual‐barcoded by PCR. […] From the columns, samples were eluted with 30 μl TE (10 mM Tris–HCl, 1 mM EDTA. pH 7.5) buffer and quantified with Quant‐iT PicoGreen dsDNA Assay Kit. • Samples were sequenced on MiSeq (MSC 2.5.0.5/RTA 1.18.54) with a 151 nt (Read1) setup using “Version3” chemistry. […]

[3] = target: T2, MAP1LC3A (Homo sapiens, UniProt Q9H492); assay: FP displacement assay, MAP1LC3A; format: binding; conditions: for IC50: Fig 4B, MAP1LC3A ATG8, FP displacement, technical triplicates, read-out: IC50 values of displacement curves, with SEM; for Kd: read-out: KD values ± SEM
T2 construct: GST (cleaved yes); made in house; host or cells: Escherichia coli BL21-Gold(DE3)

[4] = target: T3, MAP1LC3B (Homo sapiens, UniProt Q9GZQ8); assay: FP displacement assay, MAP1LC3B; format: binding; conditions: read-out: KD values ± SEM
T3 construct: GST (cleaved yes); made in house; host or cells: Escherichia coli BL21-Gold(DE3)
Description: as §1, §2

[5] = target: T2, MAP1LC3A; assay: Phosphomimetic ProP-PD selection, MAP1LC3A; conditions: phosphomimetic enrichment score of the wild-type/phosphomimetic (E) pair at the phosphosite, PM_HD2 phage selection; positive = phosphomimetic enhances binding; P-value in brackets not taken
Description: as §3, §4

[6] = target: T3, MAP1LC3B; assay: Phosphomimetic ProP-PD selection, MAP1LC3B; conditions: phosphomimetic enrichment score of the wild-type/phosphomimetic (E) pair at the phosphosite, PM_HD2 phage selection; positive = phosphomimetic enhances binding; P-value in brackets not taken
Description: as §3, §4

[7] = target: T4, TSG101 UEV (Homo sapiens, UniProt Q99816); assay: FP displacement assay, TSG101 UEV; format: binding; conditions: for IC50: read-out: IC50 values of displacement curves, with SEM; for Kd: read-out: KD values ± SEM
T4 construct: TSG101_UEV__Q99816_1_145; made in house; host or cells: Escherichia coli BL21-Gold(DE3)
T4 sequence (Q99816 1-145): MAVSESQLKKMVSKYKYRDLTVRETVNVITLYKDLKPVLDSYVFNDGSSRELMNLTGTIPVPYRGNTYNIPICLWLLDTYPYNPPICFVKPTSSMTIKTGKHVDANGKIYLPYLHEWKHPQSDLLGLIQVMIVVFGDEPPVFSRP
Description: as §1, §2

[8] = target: T4, TSG101 UEV; assay: Phosphomimetic ProP-PD selection, TSG101 UEV; conditions: phosphomimetic enrichment score of the wild-type/phosphomimetic (E) pair at the phosphosite, PM_HD2 phage selection; positive = phosphomimetic enhances binding; P-value in brackets not taken
Description: as §3, §4

[9] = Fig 4B, TSG101 UEV, technical triplicates
[10] = probe FITC-HIV2_Gag 5 nM, 50 mM sodium phosphate pH 7.4, room temperature, at least three technical replicates

T1 sequence (P60520 2-115): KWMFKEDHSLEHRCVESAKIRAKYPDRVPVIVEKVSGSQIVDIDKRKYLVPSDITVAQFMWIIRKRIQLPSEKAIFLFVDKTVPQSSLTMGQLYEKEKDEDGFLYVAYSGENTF

Row | Compound | Kd [1] [µM] | PES [2] | Kd [4] [µM] | PES [5] | PES [6] | PES [8] | further results
1 | CC(=O)N[C@@H](C)C(=O)N[C@@H](CC(N)=O)C(=O)N[C@@H](CO)C(=O)N[C@@H](Cc1c[nH]c2ccccc12)C(=O)N[C@@H](CCC(N)=O)C(=O)N[C@@H](CC(C)C)C(=O)N[C@H](C(=O)N[C@@H](CCC(=O)O)C(=O)N[C@@H](CCC(=O)O)C(=O)N1CCC[C@H]1C(=O)N[C@@H](CCC(=O)O)C(=O)N[C@@H](CCCCN)C(=O)N[C@@H](CCCNC(=N)N)C(=O)N[C@@H](CCCCN)C(=O)N[C@@H](CCC(=O)O)C(=O)N[C@@H](CCC(=O)O)C(N)=O)C(C)C [DLGAP4_907–922 E] (Ac-ANSWQLVEEPEKRKEE-NH2) | 260 ± 25 | −3.9 (0.00047) |  |  |  |  | 
2 | CC(=O)N[C@@H](CCC(N)=O)C(=O)N[C@@H](CC(N)=O)C(=O)N[C@@H](CC(C)C)C(=O)N[C@@H](CO)C(=O)N[C@@H](CCCNC(=N)N)C(=O)N[C@@H](CCC(=O)O)C(=O)N[C@@H](Cc1c[nH]c2ccccc12)C(=O)N[C@@H](Cc1c[nH]cn1)C(=O)N[C@@H](CC(=O)O)C(=O)N[C@H](C(=O)N[C@@H](CCC(N)=O)C(=O)N[C@H](C(=O)N[C@@H](CO)C(=O)N[C@@H](CO)C(=O)N[C@@H](C)C(=O)N[C@@H](Cc1ccc(O)cc1)C(N)=O)C(C)C)C(C)C [TPD52L2_91–106 E] (Ac-QNLSREWHDVQVSSAY-NH2) |  |  | 225 ± 17 | 14 (0.000000099) | 3 (0.012) |  | IC50 [3]: 223 ± 12 µM; Kd [3]: 78 ± 3 µM
3 | H3COC-QSIAREPS(pS/E)APSIPTPY-NH2 [PDCD6IP711–725 E, phosphomimetic (E) PDCD6IP 711-725 peptide] |  |  |  |  |  | −15 (0.00000004) | IC50 values of displacement curves, with SEM [7, 9]: n.b.; KD values ± SEM [7, 10]: n.b.
4 | CSCC[C@H](NC(=O)[C@@H]1CCCN1C(=O)[C@H](CCC(=O)O)NC(=O)[C@H](CC(C)C)NC(=O)[C@@H]1CCCN1C(=O)[C@H](C)NC(=O)[C@@H](NC(=O)[C@@H]1CCCN1C(=O)[C@H](CO)NC(=O)[C@H](CO)NC(=O)[C@H](C)NC(=O)CNC(=O)[C@H](CC(N)=O)NC(=O)[C@H](Cc1ccc(O)cc1)NC(C)=O)[C@@H](C)O)C(=O)N[C@@H](CO)C(=O)N1CCC[C@H]1C(N)=O [GJA1_269–283 E] (Ac-YNGASSPTAPLEPMSP-NH2) |  |  |  |  |  | 6 (0.0013) | IC50 [7, 9]: 232 ± 13 µM; Kd [7, 10]: 115 ± 4 µM
5 | CC(=O)N[C@@H](Cc1c[nH]cn1)C(=O)N[C@@H](CO)C(=O)NCC(=O)N[C@@H](CC(N)=O)C(=O)N[C@H](C(=O)N[C@@H](CCC(=O)O)C(=O)N1CCC[C@H]1C(=O)N[C@H](C(=O)N[C@@H](C)C(=O)N1CCC[C@H]1C(=O)N1CCC[C@H]1C(=O)N[C@@H](Cc1ccc(O)cc1)C(=O)N[C@@H](CC(C)C)C(=O)N[C@@H](CCC(N)=O)C(=O)N[C@@H](CCC(=O)O)C(=O)N[C@@H](CO)C(N)=O)[C@@H](C)O)C(C)C [PIP4P2_17–32 E] (Ac-HSGNVEPTAPPYLQES-NH2) |  |  |  |  |  | −14 (0.0000002) | IC50 [7, 9]: 37 ± 8 µM; Kd [7, 10]: 18 ± 2 µM
6 | CC(=O)N[C@@H](Cc1ccc(O)cc1)C(=O)N[C@@H](CCCCN)C(=O)N[C@@H](CCCCN)C(=O)N[C@@H](CCC(N)=O)C(=O)N[C@@H](CC(C)C)C(=O)N[C@@H](CCCCN)C(=O)N[C@@H](CCCNC(=N)N)C(=O)N[C@@H](Cc1ccccc1)C(=O)N[C@@H](CCC(=O)O)C(=O)N[C@H](C(=O)N[C@@H](CCC(=O)O)C(=O)N[C@@H](CCC(=O)O)C(=O)N[C@@H](Cc1ccccc1)C(=O)N[C@H](C(=O)N[C@@H](CC(C)C)C(=O)N[C@@H](CC(C)C)C(=O)O)C(C)C)[C@@H](C)O [ATG4C444–458 E] (Ac-YKKQLKRFETEEFVLL-OH) | 1.8 ± 0.2 | 4.3 (0.0025) | 4.6 ± 0.5 | 2.3 (0.015) | 6 (0.00063) |  | IC50 [3]: 11 ± 1 µM; Kd [3]: 3.1 ± 0.2 µM
7 | CC(=O)N[C@@H](CC(C)C)C(=O)N[C@@H](CCC(=O)O)C(=O)N[C@@H](CC(=O)O)C(=O)N[C@@H](CC(=O)O)C(=O)N[C@@H](CCC(=O)O)C(=O)N[C@@H](CCC(N)=O)C(=O)N[C@@H](Cc1ccccc1)C(=O)N[C@H](C(=O)N[C@@H](CCC(=O)O)C(=O)N[C@@H](CC(C)C)C(=O)N[C@@H](Cc1ccc(O)cc1)C(=O)NCC(=O)N[C@H](C(=O)N[C@@H](CCC(=O)O)C(=O)N[C@@H](CCC(=O)O)C(=O)N[C@@H](Cc1ccc(O)cc1)C(N)=O)[C@@H](C)O)C(C)C [TBK1_164–179 E] | 12.4 ± 0.6 | 1 (0.11) | 2.1 ± 0.2 | 3.2 (0.0061) | 5.1 (0.00047) |  | 
